# Assay results taken from US20120040976A1, “SMALL MOLECULE IMMUNOMODULATORS FOR ALZHEIMER'S DISEASE” (HUMAN BIOMOLECULAR RESEARCH INSTITUTE, priority 2008, published 2012).
# Legend:
# MGAT3 [1] = experiment: MGAT3 gene expression by qPCR in U-937 human monocytic cells treated with curcumins plus Aβ; format: cell-based; conditions: human monocytic cells (U-937), curcumin plus Aβ
# Protocol: (§1) Cell culture conditions for monocytic cell lines. Human and mouse monocyte cell lines are grown in RPMI-1640 medium with 10% fetal bovine serum (FBS), plus glutamine and pen/strep. For treatment with compounds (curcuminoids+/−Aβ), replicate sets of 0.5-1.0 mL cultures containing 1-2×10^6 cells are set up in the wells of 48-well tissue culture plates. Both replicate sets have at least one control well receiving no added curcuminoid to provide baseline expression controls for untreated, and Aβ-only treated cells. Remaining wells receive curcuminoid in a range of 10-fold serial dilutions in DMSO, typically from […] Cultures are incubated for 20-24 hours (“overnight”) at 37° C. in atmosphere with 5% CO2. After one overnight, to one of replicate sets of cultures is added Aβ (1-42) peptide to a final concentration of 5 μg/mL.
# (§2) RNA isolation and cDNA synthesis. After the first overnight incubation in the presence of curcuminoid, cells from one replicate set of wells are collected by centifugation. RNAs are extracted from pelleted cells using miniprep column kits following manufacturer's protocol for animal cells. […] of total cellular RNA from each well is quantitated using a Nanodrop spectrophotometer, and first-strand total cDNA is prepared from 0.3-1.0 μg RNA by random-hexamer priming. Following the second 20 hr. incubation in the presence of Aβ, RNA extractions and cDNA synthesis are similarly performed.
# Assay development. Gene-specific mRNA levels are determined using a real-time thermocycler, and by normalizing to expression of one or more control genes. Assays for quantifying mRNA levels are based on gene sequences reported in NCBI Genbank. PCR oligonucleotide primers are selected spanning introns to minimize the opportunity for amplication from any contaminating genomic DNA in the RNA preps. Oligonucleotides are typically tested and used at a concentration of 200 nM in qPCR reactions containing SYBR dye. Control reactions include template from cDNA synthesis reactions either + or − reverse transcriptase (RT), as well as no-template controls (ntc). […] Melt curves based on incremental 0.5° C. increases are determined for new assays to test for uniformity of amplified products. […]
# qPCR reactions of cultured monocyte cDNAs. […] SYBR-Green reactions were run on a Continuous Fluorescence real-time thermocycler and analyzed. Cycle threshold (Ct) values are recorded for each replicate reaction, and are then averaged and normalized against mean Ct values from one or more control genes. Fold-expression differences relative to untreated cells are determined using the 2^−ΔΔCt method as previously described. […] Data are also evaluated for each gene with regard to sensitivity, maximally effective concentration of curcuminoid, response to Aβ, and overall magnitude of fold-expression changes. […]
# TLR2 = TLR2 gene expression by qPCR in U-937 human monocytic cells treated with curcumins plus Aβ; format: cell-based; conditions: human monocytic cells (U-937), curcumin plus Aβ
# Protocol: as §1, §2
# (§3) Assay development. Gene-specific mRNA levels are determined using a real-time thermocycler, and by normalizing to expression of one or more control genes. Assays for quantifying mRNA levels are based on gene sequences reported in NCBI Genbank. PCR oligonucleotide primers are selected spanning introns to minimize the opportunity for amplication from any contaminating genomic DNA in the RNA preps. Oligonucleotides are typically tested and used at a concentration of 200 nM in qPCR reactions containing SYBR dye. Control reactions include template from cDNA synthesis reactions either + or − reverse transcriptase (RT), as well as no-template controls (ntc). All reactions are performed in triplicate. Reactions are typically run with 40 cycles of 95° C. (10 sec) and 58° C. (30 sec). Melt curves based on incremental 0.5° C. increases are determined for new assays to test for uniformity of amplified products. Reaction conditions are modified as needed depending on initial test results. ‘Working’ assays are selected based on clear RNA-dependent amplification and absence of product in ‘ntc’ reactions. The following assay primers are used: […]
# (§4) qPCR reactions of cultured monocyte cDNAs. One μL total cellular cDNA per reaction is used in triplicate reactions for each test gene, and for each culture treatment. SYBR-Green reactions were run on a Continuous Fluorescence real-time thermocycler and analyzed. Cycle threshold (Ct) values are recorded for each replicate reaction, and are then averaged and normalized against mean Ct values from one or more control genes. Fold-expression differences relative to untreated cells are determined using the 2^−ΔΔCt method as previously described. […] Data are also evaluated for each gene with regard to sensitivity, maximally effective concentration of curcuminoid, response to Aβ, and overall magnitude of fold-expression changes. […]
# TLR4 = TLR4 gene expression by qPCR in U-937 human monocytic cells treated with curcumins plus Aβ; format: cell-based; conditions: human monocytic cells (U-937), curcumin plus Aβ
# Protocol: as §1, §2, §3, §4
# [2] = Metabolic stability in human liver microsomes; format: in vitro ADME; conditions: human, read-out: Half life, t1/2 HLM
# Average permeability = format: in vitro ADME; conditions: not told
# Average solubility = format: physicochemical
# MGAT3 [3] = experiment: MGAT3 transcription ratio, AD patient / control PBMCs (qPCR); format: cell-based, human; conditions: Aβ stimulation
# Summary of the method: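 Via qPCR on cultured human monocyte cDNA, curcuminoid-treated versus vehicle, with Aβ stimulation, in AD patient and control cells. SYBR-Green triplicate reactions; Ct averaged, normalised to control genes, fold change by 2^−ΔΔCt. EC50 taken from curcumin concentration-response data.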
# TLR 8 = TLR 8 transcription ratio, AD patient / control PBMCs (qPCR); format: cell-based, human; conditions: Aβ stimulation
# Protocol: qPCR reactions of cultured monocyte cDNAs. One μL total cellular cDNA per reaction is used in triplicate reactions for each test gene, and for each culture treatment. SYBR-Green reactions were run on a Continuous Fluorescence real-time thermocycler and analyzed. Cycle threshold (Ct) values are recorded for each replicate reaction, and are then averaged and normalized against mean Ct values from one or more control genes. Fold-expression differences relative to untreated cells are determined using the 2^−ΔΔCt method as previously described. Data from the curcumin concentration range are plotted in order to determine EC50 values (concentrations producing one-half maximal stimulant activity), which are used for comparisons of potency between different compounds. Data are also evaluated for each gene with regard to sensitivity, maximally effective concentration of curcuminoid, response to Aβ, and overall magnitude of fold-expression changes.
# MGAT3 and/or TLR transcription were tested by qPCR in human monocyte cells treated with curcuminoids and compared the results to those treated with vehicle (Table 7). As discussed above, activation or up-regulation of macrophage MGAT3 or TLR's results in many functional outcomes, including the enhancement of […] and removal of Aβ, increased apoptosis, secretion of inflammatory cytokines, and other anti-AD antimicrobial activities. […]
# MGAT3 [4] = experiment: MGAT3 expression in response to oxidative stress (H2O2) in neuroblastoma cells; format: cell-based, human; conditions: H2O2, data not shown
# Protocol: Gene expression in response to oxidative stress. […] The neuroblastoma SHSY5Y and wtSOD^+ overexpressing cells were subjected to varying concentrations of hydrogen peroxide (H2O2; 0.5-5 mM) for varying times. After 1, 2, and 3 hours of incubation, cells were harvested, total RNAs were isolated, and prepared cDNAs were used in qPCR experiments to quantify normalized mRNA levels. MGAT3 expression in untransfected cells increased in relation to oxidative stress conditions, with peak expression (>200-fold increased) at 2-3 hours in the presence of 2.5 mM H2O2. Again, increased SOD1 expression appeared to potentiate MGAT3 expression, with higher maximal MGAT3 expression (>300-fold increased) observed in the wtSOD^+ line, and at lower H2O2 concentrations (e.g. 0.5 mM). […] Further, curcumins may potentiate the cellular response to oxidative stress and may therefore have a protective effect.
compound,measurement,setting,value
"O=C(/C=C(O)/C=C/c1ccc(O)cc1)/C=C/c1ccc(O)cc1 [Compound 1, 5-Hydroxy-1,7-bis-(4-hydroxy-phenyl)-hepta-1,4,6-trien-3-one, reference compound]","Relative gene expression MGAT3, increased expression relative to control cells",MGAT3 [1],+ ((+) <20-fold)
same,"Relative gene expression TLR2, increased expression relative to control cells",TLR2,+ ((+) <20-fold)
same,"Relative gene expression TLR4, increased expression relative to control cells",TLR4,+ ((+) <20-fold)
same,half-life,[2],16.4 min
same,IC50,Anti-oxidant activity,> 250 µM
same,Papp,Average permeability,305 ± 9 ×10⁻⁶ cm/s
same,Avg. Solubility,Average solubility,insol
same,Relative ratio of MGAT3 transcription in AD patient / control PBMC's,MGAT3 [3],++ ((++) indicates a ratio of 1.5-2.0)
same,Relative ratio of TLR 8 transcription in AD patient / control PBMC's,TLR 8,TLR 8 + ((+) indicates a ratio of 1.0-1.5)
same,Effect on MGAT3 expression in response to oxidative stress,MGAT3 [4],enhance MGAT3 expression
